From patent US11382956B2, “Amylin analogues” (Zealand Pharma A/S, priority 2016, dated 2022)
Numbered stars: 1 amine (or outer) side, 2 acyl side, 3 side chain; on linkers, the order of the positions; unused ones are H or OH. Bridge positions count the residues as written; N and C are the ends. Square brackets hold non-standard residues; d marks the D form. Peptide text beside a SMILES is read from it. * marks the point of attachment. C20 diacid = O=C(O)CCCCCCCCCCCCCCCCCCC(=O)*; γGlu = O=C(O)[C@H](CCC(=O)[*:2])N[*:1]; Hyp = O=C(O)[C@@H]1C[C@@H](O)CN1; NMeI = CC[C@H](C)[C@H](NC)C(=O)O; Aad = N[C@@H](CCCC(=O)O)C(=O)O; Sar = CNCC(=O)O

Assays:
[1] = target: T1, recombinant human calcitonin receptor (hCT-R) (Homo sapiens, UniProt P30988); assay: hCT-R cAMP assay (AlphaScreen) in 1321N1 cells; format: cell-based; conditions: cAMP formation, 45 min stimulation
T1 construct: host or cells: human astrocytoma cell line 1321N1
T1 sequence (P30988 25-474): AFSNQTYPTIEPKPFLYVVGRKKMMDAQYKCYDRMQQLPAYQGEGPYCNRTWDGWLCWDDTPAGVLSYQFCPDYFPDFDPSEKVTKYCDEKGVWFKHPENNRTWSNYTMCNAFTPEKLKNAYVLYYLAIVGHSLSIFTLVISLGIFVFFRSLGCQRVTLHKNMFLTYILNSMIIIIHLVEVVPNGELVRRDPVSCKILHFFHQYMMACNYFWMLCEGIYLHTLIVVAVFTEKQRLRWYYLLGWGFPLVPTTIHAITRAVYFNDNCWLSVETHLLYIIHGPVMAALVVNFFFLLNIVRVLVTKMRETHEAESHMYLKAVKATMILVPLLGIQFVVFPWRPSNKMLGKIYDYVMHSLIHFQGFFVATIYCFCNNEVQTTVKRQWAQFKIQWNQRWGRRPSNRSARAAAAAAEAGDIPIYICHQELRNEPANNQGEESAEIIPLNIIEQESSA
Outline: (§1)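 1321N1 astrocytoma cells expressing recombinant human calcitonin receptor alone or with RAMP3 (AMY3) stimulated 45 min at room temperature with peptide in IBMX-containing buffer. cAMP quantified by AlphaScreen after 1 h bead incubation; EC50 fitted from at least 7 concentrations.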

[2] = target: T2, recombinant human amylin 3 receptor (hAMYR3) (Homo sapiens, UniProt O60896+P30988); assay: hAMYR3 cAMP assay (AlphaScreen) in 1321N1 cells; format: cell-based; conditions: cAMP formation, 45 min stimulation
T2 construct: host or cells: human astrocytoma cell line 1321N1
T2 sequence (P30988 25-474): T1 sequence (P30988 25-474)
T2 sequence (O60896 24-148 partner): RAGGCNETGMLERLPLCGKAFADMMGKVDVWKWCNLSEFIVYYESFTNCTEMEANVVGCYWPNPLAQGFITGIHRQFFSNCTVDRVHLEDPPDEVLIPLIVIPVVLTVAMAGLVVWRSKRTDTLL
Outline: as §1

[3] = Assessment of chemical stability in 40 mM buffers at 40° C. (RP-HPLC); format: physicochemical; conditions: 1 mg/mL; for % degradation after 72 h at 40° C. pH4 acetate: acetate buffer pH 4, 72 h; for % degradation after 72 h at 40° C. pH6 phosphate: phosphate buffer pH 6, 72 h; for % degradation after 72 h at 40° C. pH7 phosphate: phosphate buffer pH 7, 72 h; for % degradation after 14 days at 40° C. pH4 acetate: acetate buffer pH 4, 14 days; for % degradation after 14 days at 40° C. pH6 phosphate: phosphate buffer pH 6, 14 days; for % degradation after 14 days at 40° C. pH7 phosphate: phosphate buffer pH 7, 14 days
Outline: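 Peptides at 1 mg/mL in 40 mM acetate pH 4 or phosphate pH 6 and 7 were held at 40° C for 3 and 14 days. Main-peak area-% by C8 RP-HPLC, UV 220 nm; % degradation = change in main-peak area-% versus t=0.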

[4] = Assessment of physical stability: fibril formation by Thioflavin T fluorescence; format: physicochemical; parameters: key: FND = fibrillation not detected; FD = fibrillation detected; conditions: 1 mg/mL peptide; for Fibrillation (in buffer) pH4 acetate: 50 mM acetate buffer pH 4.0, 96 hours at 40° C.; for Fibrillation (in buffer) pH7 histidine: 50 mM histidine buffer pH 7.0, 96 hours at 40° C.; for Fibrillation (in buffer) pH7 phosphate: 50 mM phosphate buffer pH 7.0, 96 hours at 40° C.
Outline: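 Test peptide at 1 mg/mL with 40 μM ThT in 50 mM phosphate pH 7.0, 50 mM histidine pH 7.0, or 50 mM acetate pH 4.0, in triplicate. Fluorescence read every 10 min after 300 s agitation for 96 hours at 40° C; significant intensity rise scored as fibrillation detected (FD).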

Row | EC50 [1] | EC50 [2] | % degradation after 72 h at 40° C. pH4 acetate [3] | % degradation after 72 h at 40° C. pH6 phosphate [3] | % degradation after 72 h at 40° C. pH7 phosphate [3] | Fibrillation (in buffer) pH4 acetate [4] | Fibrillation (in buffer) pH7 histidine [4] | Fibrillation (in buffer) pH7 phosphate [4] | SMILES | % degradation after 14 days at 40° C. pH4 acetate [3] | % degradation after 14 days at 40° C. pH6 phosphate [3] | % degradation after 14 days at 40° C. pH7 phosphate [3]
1 | 0.019 nM | 0.009 nM | <1% | 1% | <1% | FND | FND | FND | CC[C@H](C)[C@@H](C(=O)N[C@@H](CC(C)C)C(=O)N[C@@H](CO)C(=O)N[C@@H](CO)C(=O)N[C@H](C(=O)N[C@@H](CCC(=O)O)C(=O)N[C@H](C(=O)NCC(=O)N[C@@H](CO)C(=O)N[C@@H](CC(N)=O)C(=O)N[C@H](C(=O)N1C[C@H](O)C[C@H]1C(N)=O)[C@@H](C)O)C(C)C)[C@@H](C)O)N(C)C(=O)[C@H](C)NC(=O)CN(C)C(=O)[C@H](Cc1ccccc1)NC(=O)[C@H](CC(N)=O)NC(=O)[C@H](C)NC(=O)[C@H](CCCNC(=N)N)NC(=O)[C@H](CCC(N)=O)NC(=O)[C@H](CC(C)C)NC(=O)[C@H](Cc1ccccc1)NC(=O)[C@H](CCCC(=O)O)NC(=O)[C@H](C)NC(=O)[C@H](CC(C)C)NC(=O)[C@H](CCCNC(=N)N)NC(=O)[C@H](CCC(=O)O)NC(=O)[C@@H](NC(=O)[C@H](C)NC(=O)[C@@H]1CCCCNC(=O)C[C@H](NC(=O)[C@H](CCCNC(=N)N)NC(=O)CC[C@H](NC(=O)CCCCCCCCCCCCCCCCCCC(=O)O)C(=O)O)C(=O)NCC(=O)N[C@@H]([C@@H](C)O)C(=O)N[C@@H](C)C(=O)N[C@@H]([C@@H](C)O)C(=O)N1)[C@@H](C)O [Compound 33, [19CD]-isoGlu-RD()GTATK()ATERLA-Aad-FLQRANF-Gly(Me)-A-Ile(Me)-LSSTEVGSNT-Hyp-NH2] ({C20 diacid-γGlu}-RDGTATKATERLA[Aad]FLQRANF[Sar]A[NMeI]LSSTEVGSNT[Hyp]-NH2; lactam 2-7) | – | – | –
2 | 0.206 nM | 0.063 nM | <1% | <1% | 2.8% | FND | FND | FND | CC[C@H](C)[C@@H](C(=O)N1CCC[C@H]1C(=O)N[C@@H](CO)C(=O)N[C@@H](CO)C(=O)N[C@H](C(=O)N[C@@H](CCC(=O)O)C(=O)N[C@H](C(=O)NCC(=O)N[C@@H](CO)C(=O)N[C@@H](CC(N)=O)C(=O)N[C@H](C(=O)N1C[C@H](O)C[C@H]1C(N)=O)[C@@H](C)O)C(C)C)[C@@H](C)O)N(C)C(=O)[C@H](C)NC(=O)CN(C)C(=O)[C@H](Cc1ccccc1)NC(=O)[C@H](CO)NC(=O)[C@H](CO)NC(=O)[C@H](CCCNC(=N)N)NC(=O)[C@H](CCC(N)=O)NC(=O)[C@H](CC(C)C)NC(=O)[C@H](Cc1ccccc1)NC(=O)[C@H](CCCC(=O)O)NC(=O)[C@H](C)NC(=O)[C@H](CC(C)C)NC(=O)[C@H](CCCNC(=N)N)NC(=O)[C@H](CCC(=O)O)NC(=O)[C@@H](NC(=O)[C@H](C)NC(=O)[C@@H]1CCCCNC(=O)C[C@H](NC(=O)[C@H](CCCNC(=N)N)NC(=O)CC[C@H](NC(=O)CCCCCCCCCCCCCCCCCCC(=O)O)C(=O)O)C(=O)NCC(=O)N[C@@H]([C@@H](C)O)C(=O)N[C@@H](C)C(=O)N[C@@H]([C@@H](C)O)C(=O)N1)[C@@H](C)O [Compound 34, [19CD]-isoGlu-RD()GTATK()ATERLA-Aad-FLQRSSF-Gly(Me)-A-Ile(Me)-PSSTEVGSNT-Hyp-NH2] ({C20 diacid-γGlu}-RDGTATKATERLA[Aad]FLQRSSF[Sar]A[NMeI]PSSTEVGSNT[Hyp]-NH2; lactam 2-7) | – | – | –
3 | 0.075 nM | 0.031 nM | – | – | – | FND | FND | FND | CC[C@H](C)[C@@H](C(=O)N[C@@H](CC(C)C)C(=O)N[C@@H](CO)C(=O)N[C@@H](CO)C(=O)N[C@H](C(=O)N[C@@H](CCC(=O)O)C(=O)N[C@H](C(=O)NCC(=O)N[C@@H](CO)C(=O)N[C@@H](CC(N)=O)C(=O)N[C@H](C(=O)N1C[C@H](O)C[C@H]1C(N)=O)[C@@H](C)O)C(C)C)[C@@H](C)O)N(C)C(=O)[C@H](C)NC(=O)CN(C)C(=O)[C@H](Cc1ccccc1)NC(=O)[C@H](CO)NC(=O)[C@H](CO)NC(=O)[C@H](CCCNC(=N)N)NC(=O)[C@H](CCC(N)=O)NC(=O)[C@H](CC(C)C)NC(=O)[C@H](Cc1ccccc1)NC(=O)[C@H](CCCC(=O)O)NC(=O)[C@H](C)NC(=O)[C@H](CC(C)C)NC(=O)[C@H](CCCNC(=N)N)NC(=O)[C@H](CCC(=O)O)NC(=O)[C@@H](NC(=O)[C@H](C)NC(=O)[C@@H]1CSSC[C@H](NC(=O)[C@H](CCCNC(=N)N)NC(=O)CC[C@H](NC(=O)CCCCCCCCCCCCCCCCCCC(=O)O)C(=O)O)C(=O)NCC(=O)N[C@@H]([C@@H](C)O)C(=O)N[C@@H](C)C(=O)N[C@@H]([C@@H](C)O)C(=O)N1)[C@@H](C)O [Ref. 4, [19CD]-isoGlu-RC()GTATC()ATERLA-Aad-FLQRSSF-Sar-A-Ile(Me)-LSSTEVGSNT-Hyp-NH2, reference compound] ({C20 diacid-γGlu}-RCGTATCATERLA[Aad]FLQRSSF[Sar]A[NMeI]LSSTEVGSNT[Hyp]-NH2; disulfide 2-7) | 3.2% | 12.6% | 20.3%

Row | SMILES | EC50 [1] | EC50 [2] | % degradation after 72 h at 40° C. pH4 acetate [3] | % degradation after 72 h at 40° C. pH6 phosphate [3] | % degradation after 72 h at 40° C. pH7 phosphate [3] | Fibrillation (in buffer) pH4 acetate [4] | Fibrillation (in buffer) pH7 histidine [4] | Fibrillation (in buffer) pH7 phosphate [4] | % degradation after 14 days at 40° C. pH4 acetate [3] | % degradation after 14 days at 40° C. pH6 phosphate [3] | % degradation after 14 days at 40° C. pH7 phosphate [3]
4 | CC[C@H](C)[C@@H](C(=O)N[C@@H](CC(C)C)C(=O)N[C@@H](CO)C(=O)N[C@@H](CO)C(=O)N[C@H](C(=O)N[C@@H](CCC(=O)O)C(=O)N[C@H](C(=O)NCC(=O)N[C@@H](CO)C(=O)N[C@@H](CC(N)=O)C(=O)N[C@H](C(=O)N1C[C@H](O)C[C@H]1C(N)=O)[C@@H](C)O)C(C)C)[C@@H](C)O)N(C)C(=O)[C@H](C)NC(=O)CN(C)C(=O)[C@H](Cc1ccccc1)NC(=O)[C@H](CO)NC(=O)[C@H](CO)NC(=O)[C@H](CCCNC(=N)N)NC(=O)[C@H](CCC(N)=O)NC(=O)[C@H](CC(C)C)NC(=O)[C@H](Cc1ccccc1)NC(=O)[C@H](CC(=O)O)NC(=O)[C@H](C)NC(=O)[C@H](CC(C)C)NC(=O)[C@H](CCCNC(=N)N)NC(=O)[C@H](CCC(N)=O)NC(=O)[C@@H](NC(=O)[C@H](C)NC(=O)[C@@H]1CSSC[C@H](NC(=O)[C@H](CCCNC(=N)N)NC(=O)CC[C@H](NC(=O)CCCCCCCCCCCCCCCCCCC(=O)O)C(=O)O)C(=O)N[C@@H](CC(N)=O)C(=O)N[C@@H]([C@@H](C)O)C(=O)N[C@@H](C)C(=O)N[C@@H]([C@@H](C)O)C(=O)N1)[C@@H](C)O [Ref. 5, [19CD]-isoGlu-RC()NTATC()ATQRLADFLQRSSF-Sar-A-Ile(Me)-LSSTEVGSNT-Hyp-NH2, reference compound] ({C20 diacid-γGlu}-RCNTATCATQRLADFLQRSSF[Sar]A[NMeI]LSSTEVGSNT[Hyp]-NH2; disulfide 2-7) | 0.063 nM | 0.028 nM | – | – | – | FD | FND | FND | 3.0% | 5.1% | 12.7%
